Test [1] deals with Pasteurella multocida PmST1 mutant D141A (Pasteurella multocida, UniProt Q15KI8, D141A). The test is described as follows: CMP-Neu5Ac (donor) hydrolysis activity, capillary electrophoresis. As to conditions: apparent, Tris-HCl pH 8.5, 37° C., 40 min.
The target of test [2] is Pasteurella multocida α2-3-sialyltransferase 1 (PmST1), wild type (WT), SEQ ID NO: 13 (Pasteurella multocida, UniProt Q15KI8). As to conditions: apparent, donor, with LacβMU, read-out: Km for CMP-Neu5Ac; cited from earlier work.
In test [3] the target is T1, Pasteurella multocida PmST1 mutant M144H of SEQ ID NO: 13 (M120H of Δ24PmST1, SEQ ID NO: 5) (Pasteurella multocida, UniProt Q15KI8, M144H). The test can be described thus: α2-3-sialyltransferase activity, Le^xβMU as acceptor. In kind it is biochemical. Particulars: apparent, donor, Le^xβMU 1 mM, CAPSO pH 9.5, 37° C. Here is the method: (§1) Site-directed mutagenesis, expression and purification of PmST1 mutants. Site-directed mutagenesis was performed using the QuikChange multi-site-directed mutagenesis kit from Stratagene according to the manufacturer's protocol. The primers used were 5′-[…]-3′ (SEQ ID NO:35) for M144D; 5′-[…]a[…] -3′ (SEQ ID NO:36) for M144H; 5′-[…]-3′ (SEQ ID NO:37) for A35D; and 5′-[…]-3′ (SEQ ID NO:38) for A35H. The expression and purification of the mutants were performed as previously described for the WT PmST1 .
(§2) Kinetics of the α2-3-sialyltransferase activity of PmST1 mutants by HPLC analysis. With LacβMU as the acceptor substrate, the reactions were performed in duplicate at 37° C. for 10 min (M144D) or 4 min (M144H) in a reaction mixture (10 μL) containing Tris-HCl (100 mM, pH 8.5), an enzyme (5 μg mL^−1), and different concentrations (0.2, 0.5, 1.0, 2.0, and 5.0 mM) of LacβMU with a fixed concentration (1 mM) of CMP-Neu5Ac or different concentrations (0.2, 0.5, 1.0, 2.0, 5.0, and 10.0 mM) of CMP-Neu5Ac with a fixed concentration (1 mM) of LacβMU. With Le^xβMU as the acceptor substrate, the reactions were carried out in duplicate at 37° C. for 9 min (M144D) or 10 min (M144H) in a reaction mixture (10 μL) containing CAPSO (100 mM, pH 9.5), an enzyme (M144D, 39 μg mL^−1 or M144H, 5 μg mL^−), and various concentrations of Le^xβMU (1.0, 5.0, 10.0, 15.0, 25.0, and 35.0 mM) with a fixed concentration (1 mM) of CMP-Neu5Ac or various concentrations (0.2, 0.5, 1.0, 2.0, 5.0, 10.0, 20.0, and 40.0 mM) of CMP-Neu5Ac with a fixed concentration (1 mM) of Le^xβMU. Reactions were stopped by adding 10 μL of pre-chilled ethanol. The mixtures were incubated on ice for 30 min and centrifuged at 13,000 rpm for 5 min. The supernatants were diluted with 25% acetonitrile and kept on ice until aliquots of 8 μL were injected and analyzed by the Shimadzu LC-6AD system equipped with a membrane on-line degasser, a temperature control unit, and a fluorescence detector (Shimadzu RF-10AXL). A reverse-phase Premier C18 column (250×4.6 mm i.d., 5 μm particle size, Shimadzu) protected with a C18 guard column cartridge was used. The mobile phase was 25% acetonitrile. The fluorophore (MU)-labeled compounds were detected by excitation at 325 nm and emission at 372 nm. The apparent kinetic parameters were obtained by fitting the experimental data (the average values of duplicate assay results) into the Michaelis-Menten equation using Grafit 5.0.

The target of test [4] is T2, Pasteurella multocida PmST1 mutant M144D of SEQ ID NO: 13 (M120D of Δ24PmST1, SEQ ID NO: 3) (Pasteurella multocida, UniProt Q15KI8, M144D). The description is as above. The test is classed as biochemical. Particulars: apparent, donor, Le^xβMU 1 mM, CAPSO pH 9.5, 37° C. Here is the method: as §1, §2
The target of test [5] is T1, Pasteurella multocida PmST1 mutant M144H of SEQ ID NO: 13 (M120H of Δ24PmST1, SEQ ID NO: 5). The test is described as follows: CMP-Neu5Ac (donor) hydrolysis activity, capillary electrophoresis. Particulars: apparent, Tris-HCl pH 8.5, 37° C., 15 min. In kind it is biochemical. The method, then:
as §1
(§3) Kinetics of the donor hydrolysis activity of PmST1 and mutants by capillary electrophoresis analysis. […] The reactions were stopped by adding 10 μL of pre-chilled ethanol. The mixtures were incubated on ice for 30 min and centrifuged at 13,000 rpm for 5 min. The supernatants were diluted with borate buffer (25 mM, pH 9.5) and aliquotes of 5 μL each were injected to a Beckman Coulter P/ACE™ MDQ Capillary Electrophoresis system equipped with a capillary (60 cm×75 μm i.d.) and monitored at 254 nm. The apparent kinetic parameters were obtained by fitting the experimental data (the average values of duplicate assay results) into the Michaelis-Menten equation using Grafit 5.0.

Test [6] addresses T2, Pasteurella multocida PmST1 mutant M144D of SEQ ID NO: 13 (M120D of Δ24PmST1, SEQ ID NO: 3). The description is as above. The test is classed as biochemical. Particulars: apparent, Tris-HCl pH 8.5, 37° C., 15 min. The method, then: as §1, §3
Test [7] concerns the target T1, Pasteurella multocida PmST1 mutant M144H of SEQ ID NO: 13 (M120H of Δ24PmST1, SEQ ID NO: 5). The test is described as follows: α2-3-sialyltransferase activity, LacβMU as acceptor. In kind it is biochemical. As to conditions: apparent, donor, LacβMU 1 mM, Tris-HCl pH 8.5, 37° C. The method, then:
as §1, §2

The target of test [8] is T2, Pasteurella multocida PmST1 mutant M144D of SEQ ID NO: 13 (M120D of Δ24PmST1, SEQ ID NO: 3). The test is described as above. Particulars: apparent, donor, LacβMU 1 mM, Tris-HCl pH 8.5, 37° C. In kind it is biochemical. Here is the method:
as §1, §2

Data on one compound can be found in patent US9255257B2, “PmST1 mutants for chemoenzymatic synthesis of sialyl lewis X compounds” (THE REGENTS OF THE UNIVERSITY OF CALIFORNIA, priority 2011, dated 2016).

`CC(=O)N[C@H]1[C@H]([C@H](O)[C@H](O)CO)O[C@](OP(=O)(O)OC[C@H]2O[C@@H](n3ccc(N)nc3=O)[C@H](O)[C@@H]2O)(C(=O)O)C[C@@H]1O` [CMP-Neu5Ac]: the kcat (as a rule, the number of substrate molecules converted per active site and unit of time at saturation) in test [1] was “(2.5 ± 0.1) × 10^−2 s^−1”; in test [5] it was 71 ± 6 s⁻¹; in test [6], 6.5 ± 0.1 s⁻¹. Also, the Michaelis-Menten constant (Km) (in general, the concentration of substrate that gives half-maximal velocity) in test [2] was 440 µM. In addition, the “kcat (CMP-Neu5Ac)” value stood at 0.93 ± 0.02 s⁻¹ in test [3], 0.59 ± 0.01 s⁻¹ in test [4], 21 ± 1 s⁻¹ in test [7] and 1.9 ± 0.1 s⁻¹ in test [8].
